Measured values: US20260176270A1 (Exelixis, Inc., priority 2022, published 2026)
Read-outs that look alike come from different tables or passages of the source.

What was measured:
PKMYT1 = target: T1, PKMYT1 (Homo sapiens, UniProt Q99640); assay: ADP-Glo PKMYT1 ATP-depletion assay; settings: 50 nM PKMYT1, 13.3 nM CDK1, read-out: Biochemical IC50
T1 construct: PKMYT1 (93 kD, full length, N-terminal GST tag from Signal Chem); GST (N); purchased Signal Chem
T1 sequence (Q99640 1-499): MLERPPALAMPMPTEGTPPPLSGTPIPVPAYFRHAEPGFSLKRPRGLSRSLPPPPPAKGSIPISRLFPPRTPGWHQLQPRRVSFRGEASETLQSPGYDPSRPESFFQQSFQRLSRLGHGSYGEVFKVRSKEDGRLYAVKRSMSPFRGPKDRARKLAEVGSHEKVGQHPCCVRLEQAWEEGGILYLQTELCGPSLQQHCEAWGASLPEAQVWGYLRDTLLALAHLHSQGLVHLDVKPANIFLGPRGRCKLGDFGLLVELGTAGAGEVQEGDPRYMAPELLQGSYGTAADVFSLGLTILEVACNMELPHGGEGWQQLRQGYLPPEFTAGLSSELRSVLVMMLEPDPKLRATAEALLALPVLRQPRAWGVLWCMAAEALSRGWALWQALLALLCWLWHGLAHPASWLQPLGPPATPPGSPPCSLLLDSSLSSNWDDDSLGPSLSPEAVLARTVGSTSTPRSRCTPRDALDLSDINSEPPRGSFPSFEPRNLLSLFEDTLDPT
Protocol: (§1) Biochemical IC50 values were determined via ADP-Glo™ assay. Cellular IC50 values were determined via AlphaLISA assay.
ADP-Glo™ PKMYT1 ATP-depletion assay. The activity of PKMYT1 is measured using a luciferase-luciferin based ATP detection reaction to quantify ATP depletion resulting from kinase-catalyzed phosphoryl transfer to CDK1 or autophosphorylation of PKMYT1. The ADP generated as a byproduct of the reaction is converted to ATP and used to drive a luciferase reaction. Test compounds were dissolved in DMSO and dispensed into Corning 3824 384-well plates prior to the experiment such that the final DMSO concentration was <1%. To the compounds was added 3 μL of PKMYT1 (93 kD, full length, N-terminal GST tag from Signal Chem). The reaction was started by the addition of 2 μL of CDK1 (58 kDa, full length, N-terminal GST tag from Signal Chem) and ATP in assay buffer (50 mM Hepes, 40 mM NaCl, 10 mM MgCl2, 1 mM DTT, 0.1 mg/mL BSA, 2.5 mM MnCl2). Final assay concentrations were 50 nM PKMYT1, 13.3 nM CDK1, and 88 µM ATP. Plates were centrifuged for 1 minute at 1000 RPM and incubated at RT for 120 minutes. After the incubation period, ADP-Glo™ reagent was added and the plates were incubated for another 40 minutes before finally adding the kinase detection reagent. 30 minutes after the addition, plates were placed on a PHERAstar® plate reader and read using the Luminescence Protocol, integration time at 0.5 seconds.

[1] = tested on: phosphorylation of CDK1 at Thr14 in HCC1806 cells; assay: Cell lysate AlphaLISA assay measuring inhibition of phosphorylation of CDK1 Thr14; type: cell-based; settings: read-out: Cellular IC50
Protocol: as §1
Cell lysate AlphaLISA® assay measuring inhibition of phosphorylation of CDK1 Thr14. Inhibition of phosphorylation of CDK1 at Thr14 was determined using AlphaLISA® SureFire® Ultra™ Kit from Perkin Elmer (ALSU-PCDK1-A10K). HCC1806 cells were seeded at 2K cells per well (50 μl/well) in 384-well plates (Corning 3570) and stored overnight at 37° C. and 5% CO2. The following day, the compounds dissolved in DMSO were introduced to the cells and incubated for 4 hours at 37° C. and 5% CO2. The cells were then washed with PBS using Blue®Washer and 10 μl of lysis buffer containing protease inhibitor was added. The plate was placed on an orbital shaker (at 4° C.) for 30 minutes and stored overnight at −80° C. for complete lysing. The next day, the plates were thawed at room temperature for at least 30 min. Reagents were prepared in a dimmed light setting (<100 lumens). The assay was run by first adding 5 μl of the acceptor mix (reaction buffer 1: reaction buffer 2: activation buffer: acceptor beads 47:47:4:2), covering the plate with foil, shaking for 2 minutes and incubating at RT for 60 minutes. The donor mix (dilution buffer: donor beads 47:3) was then added at 5 μl per well, placed on the shaker for 2 minutes and incubated at RT for 60 minutes before reading the plates on a PHERAstar® plate reader. The results were normalized to DMSO (0% Inhibition) and 3 μM of reference compound.

Row | IC50 (PKMYT1) | IC50 ([1]; 4 hours) | IC50 ([1]; Homo sapiens, HCC1806, 4 h) | SMILES
1 | 1000 to 5000 nM | ≥ 5000 nM | – | Cc1ccc(O)c(C)c1-c1c(N)c(C(N)=O)nc2ccccc12 (atropisomer, axis not shown; (P)) [Compound 45, (P)-3-amino-4-(3-hydroxy-2,6-dimethylphenyl)quinoline-2-carboxamide]
2 | 1000 to 5000 nM | ≥ 5000 nM | – | Cc1c(O)cccc1-c1c(N)c(C(N)=O)cc2ncccc12 (atropisomer, axis not shown; (P)) [Compound 69, (P)-6-amino-5-(3-hydroxy-2-methylphenyl)quinoline-7-carboxamide]
3 | 50 to 500 nM | 50 to 500 nM | – | Cc1c(O)cccc1-c1c(N)c(C(N)=O)cc2nc(C(F)(F)F)cnc12 (atropisomer, axis not shown; (P)) [Compound 100, (P)-7-Amino-8-(3-hydroxy-2-methylphenyl)-3-(trifluoromethyl)quinoxaline-6-carboxamide]
4 | 1000 to 5000 nM | ≥ 5000 nM | – | Cc1ccc(O)cc1-c1c(N)c(C(N)=O)cc2nccnc12 (atropisomer, axis not shown; (P)) [Compound 117, (P)-7-amino-8-(5-hydroxy-2-methylphenyl)quinoxaline-6-carboxamide]
5 | < 50 nM | < 50 nM | – | Cc1c(O)cccc1-c1c(N)c(C(N)=O)nc2cccnc12 (single isomer, unassigned) [Compound 4, (P)-3-Amino-4-(3-hydroxy-2-methylphenyl)-1,5-naphthyridine-2-carboxamide]
6 | 500 to 1000 nM | 1000 to 5000 nM | – | Cc1c(O)cccc1-c1c(N)c(C(N)=O)nc2cccnc12 (single isomer, unassigned) [Compound 5, (M)-3-amino-4-(3-hydroxy-2-methylphenyl)-1,5-naphthyridine-2-carboxamide]
7 | 50 to 500 nM | 1000 to 5000 nM | – | Cc1ccc2[nH]ncc2c1-c1c(N)c(C(N)=O)nc2cccnc12 (single isomer, unassigned) [Compound 7, (P)-3-amino-4-(5-methyl-1H-indazol-4-yl)-1,5-naphthyridine-2-carboxamide]
8 | ≥ 5000 nM | ≥ 5000 nM | – | Cc1ccc2[nH]ncc2c1-c1c(N)c(C(N)=O)nc2cccnc12 (single isomer, unassigned) [Compound 8, (M)-3-amino-4-(5-methyl-1H-indazol-4-yl)-1,5-naphthyridine-2-carboxamide]
9 | < 50 nM | < 50 nM | – | Cc1ccc(O)c(C)c1-c1c(N)c(C(N)=O)nc2cccnc12 (single isomer, unassigned) [Compound 9, (P)-3-Amino-4-(3-hydroxy-2,6-dimethylphenyl)-1,5-naphthyridine-2-carboxamide]
10 | 500 to 1000 nM | 1000 to 5000 nM | – | Cc1ccc(O)c(C)c1-c1c(N)c(C(N)=O)nc2cccnc12 (single isomer, unassigned) [Compound 10, (M)-3-amino-4-(3-hydroxy-2,6-dimethylphenyl)-1,5-naphthyridine-2-carboxamide]
11 | 50 to 500 nM | < 50 nM | – | Cc1ccc(O)c(C)c1-c1c(N)c(C(N)=O)nc2c(C(F)(F)F)cccc12 (single isomer, unassigned) [Compound 30, (M)-3-Amino-4-(3-hydroxy-2,6-dimethylphenyl)-8-(trifluoromethyl) quinoline-2-carboxamide]
12 | ≥ 5000 nM | ≥ 5000 nM | – | Cc1ccc(O)c(C)c1-c1c(N)c(C(N)=O)nc2c(C(F)(F)F)cccc12 (single isomer, unassigned) [Compound 31, (P)-3-amino-4-(3-hydroxy-2,6-dimethylphenyl)-8-(trifluoromethyl) quinoline-2-carboxamide]
13 | ≥ 5000 nM | – | ≥ 5000 nM | Cc1ccc(O)c(C)c1-c1c(N)c(C(N)=O)nc2c(C)cccc12 (single isomer, unassigned) [Compound 32]
14 | 1000 to 5000 nM | ≥ 5000 nM | – | Cc1ccc(O)c(C)c1-c1c(N)c(C(N)=O)nc2c(C)cccc12 (single isomer, unassigned) [Compound 33]
15 | 50 to 500 nM | 50 to 500 nM | – | Cc1ccc(O)c(C)c1-c1c(N)c(C(N)=O)nc2c(F)cccc12 (single isomer, unassigned) [Compound 38, (M)-3-Amino-8-fluoro-4-(3-hydroxy-2,6-dimethylphenyl) quinoline-2-carboxamide]
16 | ≥ 5000 nM | ≥ 5000 nM | – | Cc1ccc(O)c(C)c1-c1c(N)c(C(N)=O)nc2c(F)cccc12 (single isomer, unassigned) [Compound 39, (P)-3-amino-8-fluoro-4-(3-hydroxy-2,6-dimethylphenyl)quinoline-2-carboxamide]
17 | 500 to 1000 nM | 1000 to 5000 nM | – | Cc1ccc(O)c(C)c1-c1c(N)c(C(N)=O)nc2ccc(C(F)(F)F)cc12 (single isomer, unassigned) [Compound 40, (M)-3-Amino-4-(3-hydroxy-2,6-dimethylphenyl)-6-(trifluoromethyl)quinoline-2-carboxamide]
18 | ≥ 5000 nM | ≥ 5000 nM | – | Cc1ccc(O)c(C)c1-c1c(N)c(C(N)=O)nc2ccc(C(F)(F)F)cc12 (single isomer, unassigned) [Compound 41, (P)-3-amino-4-(3-hydroxy-2,6-dimethylphenyl)-6-(trifluoromethyl)quinoline-2-carboxamide]
19 | 500 to 1000 nM | 1000 to 5000 nM | – | Cc1ccc2c(-c3cccc(O)c3C)c(N)c(C(N)=O)nc2c1 (single isomer, unassigned) [Compound 49, (M)-3-Amino-4-(3-hydroxy-2-methylphenyl)-7-methylquinoline-2-carboxamide]
20 | ≥ 5000 nM | ≥ 5000 nM | – | Cc1ccc2c(-c3cccc(O)c3C)c(N)c(C(N)=O)nc2c1 (single isomer, unassigned) [Compound 50, (P)-3-amino-4-(3-hydroxy-2-methylphenyl)-7-methylquinoline-2-carboxamide]
21 | 50 to 500 nM | 1000 to 5000 nM | – | Cc1ccc(O)c(C)c1-c1c(N)c(C(N)=O)nc2ccc(Cl)cc12 (single isomer, unassigned) [Compound 53, (M)-3-Amino-6-chloro-4-(3-hydroxy-2,6-dimethylphenyl)quinoline-2-carboxamide]
22 | ≥ 5000 nM | ≥ 5000 nM | – | Cc1ccc(O)c(C)c1-c1c(N)c(C(N)=O)nc2ccc(Cl)cc12 (single isomer, unassigned) [Compound 54, (P)-3-amino-6-chloro-4-(3-hydroxy-2,6-dimethylphenyl)quinoline-2-carboxamide]
23 | < 50 nM | 50 to 500 nM | – | Cc1c(O)cccc1-c1c(N)c(C(N)=O)nc2cccc(F)c12 (single isomer, unassigned) [Compound 57, (P)-3-Amino-5-fluoro-4-(3-hydroxy-2-methylphenyl)quinoline-2-carboxamide]
24 | 1000 to 5000 nM | ≥ 5000 nM | – | Cc1c(O)cccc1-c1c(N)c(C(N)=O)nc2cccc(F)c12 (single isomer, unassigned) [Compound 58, (M)-3-amino-5-fluoro-4-(3-hydroxy-2-methylphenyl)quinoline-2-carboxamide]
25 | < 50 nM | 50 to 500 nM | – | Cc1c(O)cccc1-c1c(N)c(C(N)=O)cc2cccnc12 (single isomer, unassigned) [Compound 62]
26 | 1000 to 5000 nM | ≥ 5000 nM | – | Cc1c(O)cccc1-c1c(N)c(C(N)=O)cc2cccnc12 (single isomer, unassigned) [Compound 63]
